Data reported in the NIST ThermoML archive (doi:10.1016/j.jct.2012.05.021).
Numbers after ± are expanded uncertainties.

Conditions: Crystal; visual observation

Row | Normal melting temperature [°C] | Structure (SMILES)
1 | 164.80 ± 0.4 | CC(C)NCC(O)COc1cccc2ccccc12.Cl (configuration not stated) [propranolol hydrochloride]
2 | 154.50 ± 0.4 | CC(C)NCC(O)COc1ccc(CC(N)=O)cc1 (configuration not stated) [2-(4-(2-hydroxy-3-(isopropylamino)propoxy)phenyl)acetamide]
